SMILES strings stand for the structures. Converted amounts (≈) assume the structure as drawn.

As usually defined, the MIC50 is an inhibitory concentration at the 50% level, which refers to growth in some studies and to a panel of isolates in others. In general, MIC90 refers to an inhibitory concentration at the 90% level, which refers to growth in some studies and to a panel of isolates in others. Lower therefore signals higher susceptibility. By MIC is commonly meant the least concentration at which growth counts as inhibited. A higher MIC goes with a need for much substance.

Assay type in all cases: functional
Test [1] has as its system Helicobacter pylori. In words: Antibacterial activity against Helicobacter pylori clinical isolates harboring gyrA Asn87 mutant gene by agar dilution method. On the technique in general: Agar dilution tests growth on a series of plates holding different concentrations.
Test [2] has as its system Helicobacter pylori. In words: Antibacterial activity against Helicobacter pylori clinical isolates harboring gyrA Asp91 mutant gene by agar dilution method.
The test system of test [3] is Helicobacter pylori. In words: Antibacterial activity against Helicobacter pylori clinical isolates harboring mutation in gyrA gene by agar dilution method.
The subject of test [4] is Helicobacter pylori. In words: Antibacterial activity against Helicobacter pylori clinical isolates harboring gyrA gene by agar dilution method.

On to `N[C@@H]1CN(c2c(F)cc3c(=O)c(C(=O)O)cn([C@@H]4C[C@@H]4F)c3c2Cl)CC12CC2` [SITAFLOXACIN ANHYDROUS], for which the MIC50 in test [1] was found to be 0.25 µg/mL (≈ 0.61 µM); in test [2] it was 0.12 µg/mL (≈ 0.293 µM); in test [4] it was 0.03 µg/mL (≈ 0.0732 µM). For the same compound, the MIC90 in test [1] worked out at 0.5 µg/mL (≈ 1.22 µM); in test [2], 0.25 µg/mL (≈ 0.61 µM); in test [4], 0.03 µg/mL (≈ 0.0732 µM). The MIC in test [3] was ≤ 0.015 µg/mL.
As for `C[C@H]1COc2c(N3CCN(C)CC3)c(F)cc3c(=O)c(C(=O)O)cn1c23.C[C@H]1COc2c(N3CCN(C)CC3)c(F)cc3c(=O)c(C(=O)O)cn1c23.O` [LEVOFLOXACIN], the figures for the MIC50 in test [1], in test [2] and in test [4] were 8 µg/mL, 4 µg/mL and 0.25 µg/mL, respectively. Besides, the MIC90 was 16 µg/mL in test [1], 8 µg/mL in test [2] and 0.25 µg/mL in test [4]. The MIC in test [3] worked out at 0.12 µg/mL.
Regarding `C[C@H]1NCc2cc(-c3ccc4c(=O)c(C(=O)O)cn(C5CC5)c4c3OC(F)F)ccc21` [GARENOXACIN], the values for the MIC50 in test [1], in test [2] and in test [4] were 0.5 µg/mL (≈ 1.17 µM), 0.5 µg/mL (≈ 1.17 µM) and 0.03 µg/mL (≈ 0.0704 µM), respectively. Also, the results for the MIC90 in test [1], in test [2] and in test [4] were 1 µg/mL (≈ 2.35 µM), 1 µg/mL (≈ 2.35 µM) and 0.06 µg/mL (≈ 0.141 µM), respectively. Also, the MIC in test [3] was ≤ 0.015 µg/mL.

The values are drawn from ChEMBL document CHEMBL1649495, “Sitafloxacin activity against Helicobacter pylori isolates, including those with gyrA mutations” (2009).
